Measured values published in US9682059B2 (priority 2013, dated 2017).
Read-outs that look alike come from different tables or passages of the source.

Legend:
neurotoxicity (rotarod) = experiment: Neurotoxicity (rotarod); type: in vivo; conditions: mice, protective index
Procedure: The measurement of neurotoxicity of the test compounds was conducted by the method of Dunham and Miya [Dunham, N. W. and Miya, T. S. 1957. A note on a simple apparatus for detecting neurological deficit in rats and mice. J. Am. Pharm. Assoc. (Baltimore) 46: 208-209]. In the method, motor abilities of the test animals can be determined by observing whether the test animals can walk without falling from a rotator, thereby determining the value of neurotoxicity of each compound. […] They were pre-trained on the rotarod (Rotarod; Columbus instrument, rota-max, USA) at 6 rpm for 5 min 24 hr prior to the test. The peak time was determined by administration test material's random dose for 0.5, 1, 2, 4 hour. […] The ratio of TD50 to ED50(TD50/ED50) is called as a protective index, and useful as a parameter for comparison of pharmaceutical efficacy and neurotoxicity.

[1] = tested on: Lithium-pilocarpine induced status epilepticus; experiment: animal or person; type: in vivo, rat; conditions: for responders at 46 mg/kg: Rattus norvegicus, iv, read-out: Protection %; for Protection %: rat, in vivo
[2] = tested on: PTZ-induced clonic seizure; experiment: animal or person; type: in vivo, mice; conditions: Mus musculus, ip; for responders at 20.4 mg/kg: read-out: Protection %; for ED50: read-out: PTZ test ED50
[3] = tested on: maximal electroshock seizure; experiment: animal or person; type: in vivo, mice
[4] = tested on: Lithium-pilocarpine induced status epilepticus; experiment: animal or person; type: in vivo; conditions: Rattus norvegicus, ip, 1.5 h, read-out: Protection %
[5] = tested on: lamotrigene-resistant amygdala kindled rat; experiment: animal or person; type: in vivo; conditions: ip
[6] = tested on: benzodiazepine-resistant status epilepticus; experiment: animal or person; type: in vivo; conditions: Rattus norvegicus, ip, 10 min
6 Hz-induced seizure = experiment: animal or person; type: in vivo, mice; conditions: ip
[7] = tested on: PTZ-induced clonic seizure; experiment: animal or person; type: in vivo, rats; conditions: Rattus norvegicus, ip

Compound | responders at 46 mg/kg [1] [%] | responders at 20.4 mg/kg [2] [%] | further results
CC(OC(N)=O)C(O)c1ccccc1Cl (racemic) [Compound 3, 1-(2-chlorophenyl)-1-hydroxypropyl-2-carbamate] |  |  | PI(TD50/ED50 in MES) (neurotoxicity (rotarod)): 12.0
CCC(OC(N)=O)C(O)c1ccccc1Cl (racemic) [Compound 8, 1-(2-chlorophenyl)-1-hydroxybutyl-2-carbamate] | 50 | 50 | 
CCCCC(OC(N)=O)C(O)c1ccccc1Cl (racemic) [Compound 14, 1-(2-chlorophenyl)-1-hydroxyhexyl-2-carbamate] |  | 16.7 | 
CNC(=O)O[C@H](C)[C@H](O)c1ccccc1Cl (racemic) [Compound 29, 1-(2-chlorophenyl)-1-hydroxypropyl-2-N-methylcarbamate] |  | 33.3 | 
CCCNC(=O)O[C@H](C)[C@H](O)c1ccccc1Cl (racemic) [Compound 30, 1-(2-chlorophenyl)-1-hydroxypropyl-2-N-propylcarbamate] |  | 33.3 | Protection % ([3]; mouse, in vivo): 200 ^a(25%)
CC(C)NC(=O)O[C@H](C)[C@H](O)c1ccccc1Cl (racemic) [Compound 31, 1-(2-chlorophenyl)-1-hydroxypropyl-2-N-isopropylcarbamate] | 100 | 83.3 | 
C[C@@H](OC(=O)NC1CC1)[C@H](O)c1ccccc1Cl (racemic) [Compound 32, 1-(2-chlorophenyl)-1-hydroxypropyl-2-N-cyclopropylcarbamate] | 100 | 16.7 | responders at 200 mg/kg ([3]; Mus musculus, po, read-out: Protection %): 100%
C[C@H](OC(=O)NC1CC1)[C@@H](O)c1ccccc1Cl (single isomer, unassigned) [Compound 25] |  | 66.7 | responders at 60 mg/kg [4]: 100%; Protection % [1]: ^a46 (100%)
C[C@H](OC(N)=O)[C@@H](O)c1ccccc1Cl [Compound 1, 1-(2-chlorophenyl)-(S)-1-hydroxypropyl-(S)-2-carbamate] |  |  | PI(TD50/ED50 in MES) (neurotoxicity (rotarod)): 16.8; ED50 ([5]; Rattus norvegicus): 17 mg/kg; Seizure Score ([5]; rat, in vivo): 2.0 ± 0.7(Control: 5.0 ± 0.0); ED50 [6]: 96.9 mg/kg; ED50 (6 Hz-induced seizure; Mus musculus): 14.6 mg/kg; ED50 (6 Hz-induced seizure; mouse, in vivo): 13.66 mg/kg
C[C@@H](OC(N)=O)[C@H](O)c1ccccc1Cl [Compound 2, 1-(2-chlorophenyl)-(R)-1-hydroxypropyl-(R)-2-carbamate] | 50 |  | PI(TD50/ED50 in MES) (neurotoxicity (rotarod)): 7.3; ED50 ([7]; read-out: PTZ test ED50): 51.9 mg/kg
C[C@@H](OC(N)=O)[C@@H](O)c1ccccc1Cl [Compound 4, 1-(2-chlorophenyl)-(S)-1-hydroxypropyl-(R)-2-carbamate] | 100 |  | responders at 30 mg/kg ([7]; read-out: Protection %): 50%; ED50 [2]: 26.7 mg/kg
C[C@H](OC(N)=O)[C@H](O)c1ccccc1Cl [Compound 5, 1-(2-chlorophenyl)-(R)-1-hydroxypropyl-(S)-2-carbamate] |  |  | PI(TD50/ED50 in MES) (neurotoxicity (rotarod)): 3.3
CC[C@H](OC(N)=O)[C@@H](O)c1ccccc1Cl [Compound 6, 1-(2-chlorophenyl)-(S)-1-hydroxybutyl-(S)-2-carbamate] | 100 |  | responders at 30 mg/kg ([7]; read-out: Protection %): 50%; ED50 [2]: 17.9 mg/kg
CC(C)[C@H](OC(N)=O)[C@@H](O)c1ccccc1Cl [Compound 9, 1-(2-chlorophenyl)-(8)-1-hydroxy-3-methyl-butyl-(8)-2-carbamate] |  | 33.3 | 
CCCC[C@H](OC(N)=O)[C@@H](O)c1ccccc1Cl [Compound 12, 1-(2-chlorophenyl)-(S)-1-hydroxyhexyl-(S)-2-carbamate] |  | 33.3 | 
CCCC[C@@H](OC(N)=O)[C@H](O)c1ccccc1Cl [Compound 13, 1-(2-chlorophenyl)-(R)-1-hydroxyhexyl-(R)-2-carbamate] |  | 50 | 
CNC(=O)O[C@@H](C)[C@@H](O)c1ccccc1Cl [Compound 15, 1-(2-chlorophenyl)-(S)-1-hydroxypropyl-(S)-2-N-methylcarbamate] | 100 |  | responders at 25 mg/kg ([7]; read-out: Protection %): 33.3%

Compound | responders at 46 mg/kg [1] [%] | responders at 20.4 mg/kg [2] [%] | further results
CCCNC(=O)O[C@@H](C)[C@@H](O)c1ccccc1Cl [Compound 16, 1-(2-chlorophenyl)-(S)-1-hydroxypropyl-(S)-2-N-propylcarbamate] | 100 |  | responders at 30 mg/kg ([7]; read-out: Protection %): 33.3%
C[C@H](OC(=O)NC1CC1)[C@@H](O)c1ccccc1Cl [Compound 18, 1-(2-chlorophenyl)-(S)-1-hydroxypropyl-(R)-2-N-cyclopropylcarbamate] |  |  | Protection % [1]: ^a46 (66.7%); responders at 30 mg/kg ([7]; read-out: Protection %): 16.7%
CCCNC(=O)O[C@@H](C)[C@@H](O)c1ccccc1Cl [Compound 23, 1-(2-chlorophenyl)-(R)-1-hydroxypropyl-(R)-2-N-propylcarbamate] |  | 50 | 
C[C@H](OC(N)=O)[C@@H](O)c1ccc(Cl)cc1Cl [Compound 36, 1-(2,4-dichlorophenyl)-(S)-1-hydroxypropyl-(S)-2-carbamate] |  | 33.3 | 
C[C@H](OC(N)=O)[C@@H](O)c1c(Cl)cccc1Cl [Compound 37, 1-(2,6-dichlorophenyl)-(S)-1-hydroxypropyl-(S)-2-carbamate] | 100 |  | PI(TD50/ED50 in MES) (neurotoxicity (rotarod)): 5.1; responders at 30 mg/kg ([7]; read-out: Protection %): 50%; ED50 [2]: 25.7 mg/kg
C[C@H](OC(N)=O)[C@@H](O)c1cccc(Cl)c1Cl [Compound 38, 1-(2,3-dichlorophenyl)-(S)-1-hydroxypropyl-(S)-2-carbamate] | 50 | 50 | 
CC[C@H](OC(N)=O)[C@@H](O)c1ccc(Cl)cc1Cl [Compound 39, 1-(2,4-dichlorophenyl)-(S)-1-hydroxybutyl-(S)-2-carbamate] |  |  | ED50 [2]: 24.3 mg/kg
CC[C@H](OC(N)=O)[C@@H](O)c1c(Cl)cccc1Cl [Compound 40, 1-(2,6-dichlorophenyl)-(S)-1-hydroxybutyl-(S)-2-carbamate] | 100 | 33.3 | 
CC(C)[C@H](OC(N)=O)[C@@H](O)c1c(Cl)cccc1Cl [Compound 42, 1-(2,6-dichlorophenyl)-(S)-1-hydroxy-3-methyl-butyl-(S)-2-carbamate] |  | 50 | 
CCCC[C@H](OC(N)=O)[C@@H](O)c1ccc(Cl)cc1Cl [Compound 43, 1-(2,4-dichlorophenyl)-(S)-1-hydroxyhexyl-(S)-2-carbamate] |  |  | responders at 25 mg/kg ([7]; read-out: Protection %): 33.3%
CCCC[C@H](OC(N)=O)[C@@H](O)c1c(Cl)cccc1Cl [Compound 44, 1-(2,6-dichlorophenyl)-(S)-1-hydroxyhexyl-(S)-2-carbamate] |  | 33.3 | 
C[C@@H](OC(N)=O)[C@H](O)c1ccc(Cl)cc1Cl [Compound 45, 1-(2,4-dichlorophenyl)-(R)-1-hydroxypropyl-(R)-2-carbamate] | 33.3 | 16.7 | responders at 50 mg/kg ([7]; read-out: Protection %): 16.7%
C[C@@H](OC(N)=O)[C@H](O)c1c(Cl)cccc1Cl [Compound 46, 1-(2,6-dichlorophenyl)-(R)-1-hydroxypropyl-(R)-2-carbamate] | 50 | 50 | 
C[C@H](OC(N)=O)[C@@H](O)c1ccccc1F [Compound 63, 1-(2-fluorophenyl)-(S)-1-hydroxypropyl-(S)-2-carbamate] | 50 | 50 | 
C[C@H](OC(N)=O)[C@@H](O)c1ccccc1I [Compound 65, 1-(2-iodophenyl)-(S)-1-hydroxypropyl-(S)-2-carbamate] | 100 | 100 | 
CC[C@H](OC(N)=O)[C@@H](O)c1ccccc1I [Compound 67, 1-(2-iodophenyl)-(S)-1-hydroxybutyl-(S)-2-carbamate] | 100 |  | responders at 30 mg/kg ([7]; read-out: Protection %): 33.3%; ED50 [2]: 23.1 mg/kg
